Earlier results as cited in patent US12616197B2, “Three-dimensional printing” (PERIDOT PRINT LLC, priority 2021, dated 2026).
≈ marks a conversion by molar mass, not a printed value. Read-outs that look alike come from different tables or passages of the source.

| Compound | solubility in water (water) | other results |
| --- | --- | --- |
| Cc1ncc(CO)c(CN)c1O [pyridoxamine] | 29 mg/mL (≈ 172 mM) |  |
| Cc1ncc(CO)c(CO)c1O.Cl [pyridoxine hydrochloride] |  | solubility in water: 200 mg/mL |
| Cc1cc2nc3c(=O)[nH]c(=O)nc-3n(C[C@H](O)[C@H](O)[C@H](O)CO)c2cc1C [riboflavin] |  | solubility in water (water, depending on the crystal structure): 1000 mg/3,000-15,000 mL |
| cyanocobalamin | 1000 mg/80 mL |  |
